Test results from US6071896A, “Suppression of thromboxane levels by percutaneous administration of aspirin” (Gundersen Clinic, Ltd., priority 1998, dated 2000).
Ends that are not written are not given here.

Tests used:
[1] = system: PGI2 formation in response to intravenous bradykinin; assay: Urinary PGI-M excretion at rest and after bradykinin infusion, Example 3; type: in vivo, human; conditions: 4 subjects; intravenous 100-800 ng/kg/min
Description: In an additional 4 subjects, we examined the increase in PGI2 formation in response to intravenous bradykinin prior to and following oral aspirin 75 mg or dermal aspirin 750 mg daily for 14 days. The protocol for bradykinin has been described previously [Clark, N.Engl.J.Med 325:1137 (1991)]. Volunteers were admitted after an overnight fast to the Clinical Research Center. Blood samples were obtained for serum TXB2 and the subject asked to void. Through a peripheral vein, 1 liter of normal saline was infused over 1 hour. After a further hour, bradykinin was infused in incremental doses of 100-800 ng/kg/min, each over 15 mm. The infusion was continued at the maximum tolerated dose for a total period of 2 hr. Blood pressure and heart rate were monitored continuously. Urine was collected in separate 2 hr aliquots prior to, during and following the bradykinin infusion.
^1 The excretion of TXM and PGIM before and following dermal aspirin
750 mg/day or oral aspirin 75 mg/day for 10 days. Urine samples were
collected over 2 hr before (rest) and following the administration of […]

[2] = system: PGI2 formation in response to intravenous bradykinin; conditions: on average; cited from earlier work

RPPGFSPFR [bradykinin]
Increase in PGI-M excretion induced by bradykinin [1]: 5.1±6 fold
Increase in PGI2 biosynthesis by bradykinin, previous studies [2]: 2-6 fold
